In patent US8741889B2, “Method of treating non-small cell lung cancer and colon cancer with gamma-secretase inhibitor” (Hoffmann-La Roche Inc, priority 2008, dated 2014):

Legend:
[1] = test system: truncated human Notch 1 processing; assay: Cellular Notch luciferase reporter assay in HEK293 cells; type: cell-based
Procedure: (§1) Multiple in vitro assays were utilized to characterize the potency and selectivity of compound (1). The primary in vitro assay uses cell-free membrane preparations to provide the -secretase enzyme complex as an in vitro assay. […] The cellular processing of APP is measured using an ELISA-based readout. HEK293 cells have been engineered to over-express APP. Processing is measured by an ELISA-based quantitation of the A 1-40 secretase product. Cellular Notch inhibitory activity is measured using HEK293 cell line stably expressing a truncated human Notch 1 fused in its intracellular domain to a VP16/[…] transcriptional activator, which drives a firefly luciferase gene Inhibition of Notch processing produces a reduction in luciferase reporter activity as measured by its chemo luminescence.

[2] = test system: A549 non-small cell lung carcinoma (NSCLC) xenografts; assay: Antitumor efficacy in A549 NSCLC xenografts in nude mice; type: in vivo; conditions: for % TGI: day 47
Procedure: In the current study, compound (1) was evaluated for its antitumor activity against the A549 NSCLC human xenograft model in nude mice. A549 cells appear to have a functional Notch signaling pathway since receptors, ligands, and downstream effectors such as Hes-1 and Hey-1 are expressed (as assessed by PCR-based gene expression profiling). A549 cells have at least one identifiable defect in the Notch pathway; the negative regulator Numb is expressed only at low levels. In vitro, nM concentrations of compound (1) induce a less transformed phenotype in A549 cells and loss of growth in soft agar […], which is consistent with mechanistic inhibition of Notch activation. […] Female nude mice (10/group), obtained from Charles River Laboratories (Wilmington, Mass.) were used when they were approximately 13-14 weeks old and weighed approximately 23-25 grams. The health of all animals was determined daily by gross observation of experimental animals and by the analyses of blood samples of sentinel animals that were housed on the shared shelf racks. All animals were allowed to acclimate and recover from any shipping related stress for a minimum of 72 hours prior to experimental use. Autoclaved water and irradiated food [5058-ms Pico chow (mouse) Purina, Richmond, Ind.] were provided ad libitum, and the animals were maintained on a 12 hour light and dark cycle. Cages, bedding and water bottles were autoclaved before use and were changed weekly. A549 human NSCLC cells were purchased from ATCC (Manassas, Va.) and cultured in RPMI 1640 culture medium with 10% (v/v) FBS. Cells were grown and harvested by members of the Oncology In Vivo Section (OIVS). Each mouse received 7.5×10^6 cells in 0.2 ml PBS (Phosphate Buffered Saline) implanted subcutaneously in the right hind flank by members of OIVS on Aug. 17, 2006. […] Compound (1) was mixed vigorously prior to withdrawal and administration. Formulated compound and vehicle were prepared weekly and stored at 4° C., as set out below. […] Treatment began on Sep. 12, 2006 (day 26 post tumor cell implant). […] 19, 2006 (day 33 post tumor cell implant). […] 3, 2006 (day 47 post tumor cell implant). Efficacy data was graphically represented as the mean tumor volume+standard error of the mean (SEM). Tumor volumes of treated groups were presented as percentages of tumor volumes of the control groups (% T/C), using the formula: 100×((T−T0)/(C−C0)), where T represented mean tumor volume of a treated group on a specific day during the experiment, T0 represented mean tumor volume of the same treated group on the first day of treatment; C represented mean tumor volume of a control group on the specific day during the experiment, and C0 represented mean tumor volume of the same treated group on the first day of treatment. Tumor volume (in cubic millimeters) was calculated using the ellipsoid formula: (D×(d2))/2 where ‘D’ represents the large diameter of the tumor, and ‘d’ represents the small diameter. In some cases, tumor regression and/or percent change in tumor volume was calculated using the formula: ((T−T0)/T0)×100 where ‘T’ represents mean tumor volume of the treated group at a particular day, and ‘T0’ represents mean tumor volume of the same treated group at initiation of treatment. Statistical analysis was determined by the rank sum test and One Way Anova and a post-hoc Bonferroni t-test (SigmaStat, version 2.0, Jandel Scientific, San Francisco, Calif.). Differences between groups were considered to be significant when the probability value (p) was ≦0.05. […] Percent tumor growth inhibition was calculated on day 47, which was the final day of treatment for the 21-day treated groups, 7 days post-treatment for 14-day treated groups (14+/7−), or 14-days post treatment for the 7-day treated group (7+/14−).

[3] = molecular target: γ-secretase enzyme complex (Homo sapiens, UniProt P49768)
Procedure: as §1

CC(C)(C(=O)NCC(F)(F)C(F)(F)F)C(=O)N[C@@H]1C(=O)Nc2ccccc2-c2ccccc21 [Compound (1), 2,2-Dimethyl-N—((S)-6-oxo-6,7-dihydro-5H-dibenzo[b,d]azepin-7-yl)-N′-(2,2,3,3,3-pentafluoro-propyl)-malonamide]
IC50 [1]: 5 nM
% TGI ([2]; 3 mg/kg po bid × 21 days): 83%
% TGI ([2]; 3 mg/kg po bid, 14+/7− schedule): 83%
% TGI ([2]; 3 mg/kg po qd × 21 days): 76%
% TGI ([2]; 3 mg/kg po qd, 14+/7− schedule): 66%
% TGI ([2]; 10 mg/kg po bid × 21 days): 72%
% TGI ([2]; 10 mg/kg po bid, 14+/7− schedule): 80%
% TGI ([2]; 10 mg/kg po qd × 21 days): 70%
% TGI ([2]; 10 mg/kg po qd, 14+/7− schedule): 77%
% TGI ([2]; 30 mg/kg po bid, 14+/7− schedule): 79%
% TGI ([2]; 30 mg/kg po qd × 21 days): 66%
% TGI ([2]; 30 mg/kg po qd, 14+/7− schedule): 79%
inhibition of tumor growth sustained post treatment ([2]; 60 mg/kg bid, 7+/14− schedule (to day 67)): up to 34 days
% TGI ([2]; 60 mg/kg po bid, 7+/14− schedule): 91%
% TGI ([2]; 60 mg/kg po qd, 14+/7− schedule): 88%
% TGIs (range) ([2]; 3, 10 or 30 mg/kg once or twice daily for 14 (14+/7−) or 21 days): 66-83%
inhibition of tumor growth sustained post treatment ([2]; all 21-day treated groups (to day 63)): up to 16 days
growth suppression lasting post treatment ([2]; all qd or bid groups, 14+/7− schedule (to day 63)): up to 23 days
tumor growth inhibition (range) ([2]; seven or fourteen days of BID treatment out of a 21 day cycle): 79-91%
IC50 in cellular and cell-free assays [3]: low nanomolar range
